Data reported in US4496584A, “Amidine derivatives with anti-complement activity” (Torii & Co. Ltd., priority 1981, dated 1985).
pIC50: −log10 of the molar value.

Legend:
[1] = target: kallikrein; experiment: Enzyme inhibition, TAME hydrolysis, kallikrein (method of Muramatsu et al.); type: biochemical; details: read-out: ID50, kallikrein
Procedure: (§1) The enzyme inhibitory activity was determined according to the method of Muramatsu et al. [M. Muramatsu, T. Onishi, S. Makino, Y. Hayashi and S. Fujii, J. Biochem., 58, 214 (1965)]. The data summarized in Table 1 are expressed in terms of molar concentration (ID50) of the test compound which inhibits 50% of the activity of each enzyme to hydrolyze TAME (tosylarginine methyl ester).

[2] = target: thrombin (Bos taurus, UniProt P00735); experiment: Enzyme inhibition, TAME hydrolysis, thrombin (method of Muramatsu et al.); type: biochemical
Procedure: as §1

[3] = target: plasmin (Homo sapiens, UniProt P00747); experiment: Enzyme inhibition, TAME hydrolysis, plasmin (method of Muramatsu et al.); type: biochemical; details: read-out: ID50, plasmin
plasmin, sequence (P00747 581-810 limits assumed): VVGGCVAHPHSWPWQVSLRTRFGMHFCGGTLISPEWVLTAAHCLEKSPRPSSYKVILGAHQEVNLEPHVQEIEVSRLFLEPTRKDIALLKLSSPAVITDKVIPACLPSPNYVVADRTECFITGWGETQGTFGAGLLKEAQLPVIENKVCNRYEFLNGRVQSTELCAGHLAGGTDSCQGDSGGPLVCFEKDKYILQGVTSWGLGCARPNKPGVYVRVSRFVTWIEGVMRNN
plasmin, sequence (P00747 97-580 partner limits assumed): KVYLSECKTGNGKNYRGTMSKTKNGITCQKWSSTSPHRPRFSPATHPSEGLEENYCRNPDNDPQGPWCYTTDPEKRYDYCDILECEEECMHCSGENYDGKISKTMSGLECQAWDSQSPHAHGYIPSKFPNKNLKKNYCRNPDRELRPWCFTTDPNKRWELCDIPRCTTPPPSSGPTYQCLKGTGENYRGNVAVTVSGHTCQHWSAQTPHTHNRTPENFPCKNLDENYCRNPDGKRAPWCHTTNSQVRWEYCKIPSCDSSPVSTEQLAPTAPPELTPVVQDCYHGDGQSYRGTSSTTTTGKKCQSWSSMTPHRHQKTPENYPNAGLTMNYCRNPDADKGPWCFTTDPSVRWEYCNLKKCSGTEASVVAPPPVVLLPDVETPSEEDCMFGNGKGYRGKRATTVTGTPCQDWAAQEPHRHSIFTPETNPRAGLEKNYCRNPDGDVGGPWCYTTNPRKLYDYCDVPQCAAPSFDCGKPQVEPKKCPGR
Procedure: as §1

[4] = target: T1, trypsin (Bos taurus, UniProt P00760); experiment: Enzyme inhibition, TAME hydrolysis, trypsin (method of Muramatsu et al.); type: biochemical; details: hydrolysis of TAME; read-out: ID50, trypsin
T1 sequence (P00760 24-246): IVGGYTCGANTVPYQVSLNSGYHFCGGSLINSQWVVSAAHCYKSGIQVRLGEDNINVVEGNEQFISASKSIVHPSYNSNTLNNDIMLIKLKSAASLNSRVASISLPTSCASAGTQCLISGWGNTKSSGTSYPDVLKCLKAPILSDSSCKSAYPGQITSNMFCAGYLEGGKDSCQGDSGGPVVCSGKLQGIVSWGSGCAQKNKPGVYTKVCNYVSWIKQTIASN
Procedure: as §1

[5] = system: complement mediated hemolysis; experiment: Inhibition of complement mediated hemolysis (method of Baker et al.); type: cell-based

SMILES	pIC50 [1]	inhibition at 10 µM ([2]; 1×10^-5 M, hydrolysis of TAME, read-out: percentage inhibition, thrombin (figure in parentheses))	pIC50 [3]	pIC50 [4]	Inhibition of complement mediated hemolysis (%) ([5]; concentration 1 × 10^-4)	Inhibition of complement mediated hemolysis (%) ([5]; concentration 1 × 10^-5)	Inhibition of complement mediated hemolysis (%) ([5]; concentration 1 × 10^-6)	Inhibition of complement mediated hemolysis (%) ([5]; concentration 1 × 10^-7)	pIC50 [2]
CCCCCCCCCC(=O)Oc1ccc2cc(C(=N)N)ccc2c1 [Compound No. 5, 6-amidino-2-naphthyl caprate]	4.00	26%	5.00	5.22	–	–	–	–	–
CCCCCCCCCCCC(=O)Oc1ccc2cc(C(=N)N)ccc2c1 [Compound No. 6, 6-amidino-2-naphthyl laurate]	–	–	–	–	13%	13%	27%	15%	–
C/C=C/C=C/C(=O)Oc1ccc2cc(C(=N)N)ccc2c1 [Compound No. 9, 6-amidino-2-naphthyl sorbate]	–	–	–	–	94%	89%	37%	14%	–
N=C(N)c1ccc2cc(OC(=O)CC3C=CCC3)ccc2c1 (stereo not shown) [Compound No. 13, 6-amidino-2-naphthyl 2-cyclopenteneacetate]	–	–	–	–	39%	21%	10%	10%	–
N=C(N)c1ccc2cc(OC(=O)CCCC3CCCCC3)ccc2c1 [Compound No. 15, 6-amidino-2-naphthyl 4-cyclohexylbutyrate]	< 5.00	–	–	–	–	–	–	–	< 5.00
N=C(N)c1ccc2cc(OC(=O)CCCCCN)ccc2c1 [Compound No. 17, 6-amidino-2-naphthyl ε-aminocaproate]	4.30	–	4.40	3.70	–	–	–	–	3.22
